# Reference: US20030215352A1, “Method of controlling microbial contamination” (Church & Dwight Co., Inc., priority 2002, published 2003)
# Read-outs that look alike come from different tables or passages of the source.
# Experiments:
# Details in all cases: 25° C.
# [1] = system: P. aeruginosa
# Description: (§1) Absorbent products, of 2 in.×2 in., weighing about 1 gram each, and being of identical construction except that 0%, 2%, 4%, 6%, 8%, 10% and 12% (per gram of product) of sodium bicarbonate was incorporated therein are used for this example. […] Two ml of sterile water was added to each product. Each product was then inoculated with 0.1 ml of one of a bacterium or fungus selected from S. aureus (6.9×10^5 CFU/ml), E. coli (5.4×10^5 CFU/ml), P. aeruginosa (6.9×10^5 CFU/ml), and C. albicans (5×10^5 CFU/ml). Each inoculated product was incubated at 25° C. and kept moist in a petri dish. Microbial numbers were determined on days 7 and 14 Microbial numbers were determined by removing the product from the petri dish and placed in a bag with 9 ml of neutralizer broth, mixed and plated on Leethan Agar. These plates were then incubated for 48-72 hours at 30° C. and colonies on the plates were counted.
# [2] = system: E. coli
# Description: as §1
# [3] = system: S. aureus
# Description: as §1
# [4] = system: C. albicans
# Description: as §1
# [5] = Day 7, 2% sodium bicarbonate in absorbent product
# [6] = Day 7, 4% sodium bicarbonate in absorbent product
# [7] = Day 7, 6% sodium bicarbonate in absorbent product
# [8] = Day 7, 8% sodium bicarbonate in absorbent product
# [9] = Day 7, 10% sodium bicarbonate in absorbent product
# [10] = Day 7, 12% sodium bicarbonate in absorbent product
# [11] = Day 14, 2% sodium bicarbonate in absorbent product
# [12] = Day 14, 4% sodium bicarbonate in absorbent product
# [13] = Day 14, 6% sodium bicarbonate in absorbent product
# [14] = Day 14, 8% sodium bicarbonate in absorbent product
# [15] = Day 14, 10% sodium bicarbonate in absorbent product
# [16] = Day 14, 12% sodium bicarbonate in absorbent product
smiles,measurement,setting,value
"O=C([O-])O.[Na+] [Sodium Bicarbonate, sodium bicarbonate]",Colony Forming Units/ml P. aeruginosa,[1]; [5],<10 Colony Forming Units/ml
same,Colony Forming Units/ml P. aeruginosa,[1]; [6],<10 Colony Forming Units/ml
same,Colony Forming Units/ml P. aeruginosa,[1]; [7],50 Colony Forming Units/ml
same,Colony Forming Units/ml P. aeruginosa,[1]; [8],150 Colony Forming Units/ml
same,Colony Forming Units/ml P. aeruginosa,[1]; [9],<10 Colony Forming Units/ml
same,Colony Forming Units/ml P. aeruginosa,[1]; [10],<10 Colony Forming Units/ml
same,Colony Forming Units/ml P. aeruginosa,[1]; [11],15 Colony Forming Units/ml
same,Colony Forming Units/ml P. aeruginosa,[1]; [12],<10 Colony Forming Units/ml
same,Colony Forming Units/ml P. aeruginosa,[1]; [13],<10 Colony Forming Units/ml
same,Colony Forming Units/ml P. aeruginosa,[1]; [14],<10 Colony Forming Units/ml
same,Colony Forming Units/ml P. aeruginosa,[1]; [15],<10 Colony Forming Units/ml
same,Colony Forming Units/ml P. aeruginosa,[1]; [16],<10 Colony Forming Units/ml
same,Colony Forming Units/ml E. coli,[2]; [5],<10 Colony Forming Units/ml
same,Colony Forming Units/ml E. coli,[2]; [6],<10 Colony Forming Units/ml
same,Colony Forming Units/ml E. coli,[2]; [7],<10 Colony Forming Units/ml
same,Colony Forming Units/ml E. coli,[2]; [8],<10 Colony Forming Units/ml
same,Colony Forming Units/ml E. coli,[2]; [9],<10 Colony Forming Units/ml
same,Colony Forming Units/ml E. coli,[2]; [10],<10 Colony Forming Units/ml
same,Colony Forming Units/ml E. coli,[2]; [11],<10 Colony Forming Units/ml
same,Colony Forming Units/ml E. coli,[2]; [12],<10 Colony Forming Units/ml
same,Colony Forming Units/ml E. coli,[2]; [13],<10 Colony Forming Units/ml
same,Colony Forming Units/ml E. coli,[2]; [14],<10 Colony Forming Units/ml
same,Colony Forming Units/ml E. coli,[2]; [15],<10 Colony Forming Units/ml
same,Colony Forming Units/ml E. coli,[2]; [16],<10 Colony Forming Units/ml
same,Colony Forming Units/ml S. aureus,[3]; [5],<10 Colony Forming Units/ml
same,Colony Forming Units/ml S. aureus,[3]; [6],<10 Colony Forming Units/ml
same,Colony Forming Units/ml S. aureus,[3]; [7],<10 Colony Forming Units/ml
same,Colony Forming Units/ml S. aureus,[3]; [8],<10 Colony Forming Units/ml
same,Colony Forming Units/ml S. aureus,[3]; [9],5 Colony Forming Units/ml
same,Colony Forming Units/ml S. aureus,[3]; [10],<10 Colony Forming Units/ml
same,Colony Forming Units/ml S. aureus,[3]; [11],<10 Colony Forming Units/ml
same,Colony Forming Units/ml S. aureus,[3]; [12],<10 Colony Forming Units/ml
same,Colony Forming Units/ml S. aureus,[3]; [13],<10 Colony Forming Units/ml
same,Colony Forming Units/ml S. aureus,[3]; [14],10 Colony Forming Units/ml
same,Colony Forming Units/ml S. aureus,[3]; [15],<10 Colony Forming Units/ml
same,Colony Forming Units/ml S. aureus,[3]; [16],<10 Colony Forming Units/ml
same,Colony Forming Units/ml C. albicans,[4]; [5],"1,800 Colony Forming Units/ml"
same,Colony Forming Units/ml C. albicans,[4]; [6],5 Colony Forming Units/ml
same,Colony Forming Units/ml C. albicans,[4]; [7],<10 Colony Forming Units/ml
same,Colony Forming Units/ml C. albicans,[4]; [8],70 Colony Forming Units/ml
same,Colony Forming Units/ml C. albicans,[4]; [9],<10 Colony Forming Units/ml
same,Colony Forming Units/ml C. albicans,[4]; [10],30 Colony Forming Units/ml
same,Colony Forming Units/ml C. albicans,[4]; [11],15 Colony Forming Units/ml
same,Colony Forming Units/ml C. albicans,[4]; [12],450 Colony Forming Units/ml
same,Colony Forming Units/ml C. albicans,[4]; [13],<10 Colony Forming Units/ml
same,Colony Forming Units/ml C. albicans,[4]; [14],3000 Colony Forming Units/ml
same,Colony Forming Units/ml C. albicans,[4]; [15],<10 Colony Forming Units/ml
same,Colony Forming Units/ml C. albicans,[4]; [16],<10 Colony Forming Units/ml
